Results taken from ChEMBL document CHEMBL4507294, “Data for DCP probe MSD-CYP11B2” (2021).

Tests used:
[1] = target: Serine/threonine-protein kinase Chk1 (Homo sapiens) (UniProt O14757); conditions: Compound concentration 1000.0 nM
[2] = target: Serine/threonine-protein kinase D1 (Homo sapiens) (UniProt Q15139); conditions: Compound concentration 1000.0 nM
[3] = test system: Serine/threonine-protein kinase B-raf (Homo sapiens), P15056 [V600E]; conditions: Compound concentration 1000.0 nM
[4] = test system: Mast/stem cell growth factor receptor Kit (Homo sapiens), P10721 [V559D]; conditions: Compound concentration 1000.0 nM
[5] = target: Myosin light chain kinase 2, skeletal/cardiac muscle (Homo sapiens) (UniProt Q9H1R3); conditions: Compound concentration 1000.0 nM
[6] = target: Dual specificity mitogen-activated protein kinase kinase 5 (Homo sapiens) (UniProt Q13163); conditions: Compound concentration 1000.0 nM
[7] = target: TGF-beta receptor type-1 (Homo sapiens) (UniProt P36897); conditions: Compound concentration 1000.0 nM
[8] = target: Serine/threonine-protein kinase TNNI3K (Homo sapiens) (UniProt Q59H18); conditions: Compound concentration 1000.0 nM
[9] = target: Serine/threonine-protein kinase/endoribonuclease IRE1 (Homo sapiens) (UniProt O75460); conditions: Compound concentration 1000.0 nM
[10] = target: Serine/threonine-protein kinase pim-2 (Homo sapiens) (UniProt Q9P1W9); conditions: Compound concentration 1000.0 nM
Chain of Serine/threonine-protein kinase pim-2 (Homo sapiens) (Q9P1W9 whole entry, looked up): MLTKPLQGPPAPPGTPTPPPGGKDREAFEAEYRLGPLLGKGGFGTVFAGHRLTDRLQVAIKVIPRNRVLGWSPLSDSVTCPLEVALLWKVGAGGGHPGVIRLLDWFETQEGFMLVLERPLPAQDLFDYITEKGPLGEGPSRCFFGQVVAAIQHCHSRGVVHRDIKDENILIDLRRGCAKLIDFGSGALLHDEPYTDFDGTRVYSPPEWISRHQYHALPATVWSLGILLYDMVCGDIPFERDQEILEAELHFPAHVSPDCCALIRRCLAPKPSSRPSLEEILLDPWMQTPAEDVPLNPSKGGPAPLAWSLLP

[11] = target: Serine/threonine-protein kinase 38 (Homo sapiens) (UniProt Q15208); conditions: Compound concentration 1000.0 nM
Chain of Serine/threonine-protein kinase 38 (Homo sapiens) (Q15208 2-465 limits assumed): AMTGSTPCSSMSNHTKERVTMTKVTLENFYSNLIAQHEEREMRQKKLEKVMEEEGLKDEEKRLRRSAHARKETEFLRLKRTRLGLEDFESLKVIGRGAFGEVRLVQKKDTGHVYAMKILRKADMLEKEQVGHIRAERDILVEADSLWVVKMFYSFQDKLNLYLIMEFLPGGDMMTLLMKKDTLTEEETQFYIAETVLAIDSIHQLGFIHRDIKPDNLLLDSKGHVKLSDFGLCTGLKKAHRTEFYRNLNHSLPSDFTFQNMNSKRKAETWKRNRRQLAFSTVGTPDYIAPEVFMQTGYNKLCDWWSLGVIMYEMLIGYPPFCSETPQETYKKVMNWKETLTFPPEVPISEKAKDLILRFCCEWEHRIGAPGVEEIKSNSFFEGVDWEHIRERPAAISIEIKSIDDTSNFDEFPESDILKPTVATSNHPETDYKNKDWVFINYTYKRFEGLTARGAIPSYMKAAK

[12] = target: Serine/threonine-protein kinase PLK2 (Homo sapiens) (UniProt Q9NYY3); conditions: Compound concentration 1000.0 nM
[13] = target: Serine/threonine-protein kinase WNK4 (Homo sapiens) (UniProt Q96J92); conditions: Compound concentration 1000.0 nM
[14] = test system: Tyrosine-protein kinase ABL1 (Homo sapiens), P00519 [M351T]; conditions: Compound concentration 1000.0 nM
[15] = target: Serine/threonine-protein kinase WNK1 (Homo sapiens) (UniProt Q9H4A3); conditions: Compound concentration 1000.0 nM
[16] = target: Muscarinic acetylcholine receptor M3 (Homo sapiens) (UniProt P20309); conditions: Compound concentration 10.0 uM
[17] = target: Testis-specific serine/threonine-protein kinase 1 (Homo sapiens) (UniProt Q9BXA7); conditions: Compound concentration 1000.0 nM
[18] = test system: Tyrosine-protein kinase ABL1 (Homo sapiens), P00519 [Y253F]; conditions: Compound concentration 1000.0 nM
[19] = target: Serine/threonine-protein kinase MRCK alpha (Homo sapiens) (UniProt Q5VT25); conditions: Compound concentration 1000.0 nM
[20] = target: Ribosomal protein S6 kinase beta-1 (Homo sapiens) (UniProt P23443); conditions: Compound concentration 1000.0 nM
[21] = target: Death-associated protein kinase 3 (Homo sapiens) (UniProt O43293); conditions: Compound concentration 1000.0 nM
[22] = target: Bone morphogenetic protein receptor type-1A (Homo sapiens) (UniProt P36894); conditions: Compound concentration 1000.0 nM
[23] = target: Serine/threonine-protein kinase Nek7 (Homo sapiens) (UniProt Q8TDX7); conditions: Compound concentration 1000.0 nM
Chain of Serine/threonine-protein kinase Nek7 (Homo sapiens) (Q8TDX7 whole entry, looked up): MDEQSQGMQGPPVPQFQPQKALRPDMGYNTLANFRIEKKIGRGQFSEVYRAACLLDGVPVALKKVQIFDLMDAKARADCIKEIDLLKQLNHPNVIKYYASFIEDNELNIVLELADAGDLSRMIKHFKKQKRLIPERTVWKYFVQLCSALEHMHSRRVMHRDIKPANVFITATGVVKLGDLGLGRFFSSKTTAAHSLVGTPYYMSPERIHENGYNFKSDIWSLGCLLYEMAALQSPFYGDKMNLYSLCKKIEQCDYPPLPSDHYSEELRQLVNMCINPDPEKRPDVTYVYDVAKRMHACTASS

[24] = target: Serine/threonine-protein kinase D2 (Homo sapiens) (UniProt Q9BZL6); conditions: Compound concentration 1000.0 nM
Chain of Serine/threonine-protein kinase D2 (Homo sapiens) (Q9BZL6 whole entry): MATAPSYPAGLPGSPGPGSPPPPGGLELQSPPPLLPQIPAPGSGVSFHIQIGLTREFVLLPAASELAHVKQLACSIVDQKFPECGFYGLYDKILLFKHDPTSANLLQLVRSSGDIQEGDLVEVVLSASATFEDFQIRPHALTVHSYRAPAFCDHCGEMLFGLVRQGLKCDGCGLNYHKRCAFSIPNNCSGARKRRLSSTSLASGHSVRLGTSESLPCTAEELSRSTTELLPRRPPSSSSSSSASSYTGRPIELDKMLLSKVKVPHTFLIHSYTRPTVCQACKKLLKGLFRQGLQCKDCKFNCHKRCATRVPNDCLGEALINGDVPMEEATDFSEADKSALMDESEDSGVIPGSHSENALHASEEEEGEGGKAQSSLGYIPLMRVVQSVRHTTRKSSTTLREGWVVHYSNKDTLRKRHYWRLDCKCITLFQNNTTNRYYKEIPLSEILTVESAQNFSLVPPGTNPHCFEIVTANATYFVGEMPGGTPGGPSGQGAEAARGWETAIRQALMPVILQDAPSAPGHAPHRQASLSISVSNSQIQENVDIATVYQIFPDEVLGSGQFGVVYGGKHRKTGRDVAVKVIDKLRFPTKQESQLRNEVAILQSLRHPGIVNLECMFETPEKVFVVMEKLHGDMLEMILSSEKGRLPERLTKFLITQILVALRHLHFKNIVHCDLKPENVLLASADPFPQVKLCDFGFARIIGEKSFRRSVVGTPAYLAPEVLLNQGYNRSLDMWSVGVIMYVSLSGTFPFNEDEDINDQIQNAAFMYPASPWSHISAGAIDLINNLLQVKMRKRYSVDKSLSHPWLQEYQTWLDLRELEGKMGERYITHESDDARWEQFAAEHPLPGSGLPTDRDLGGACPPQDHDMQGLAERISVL

[25] = target: Inhibitor of nuclear factor kappa-B kinase subunit beta (Homo sapiens) (UniProt O14920); conditions: Compound concentration 1000.0 nM
[26] = target: NT-3 growth factor receptor (Homo sapiens) (UniProt Q16288); conditions: Compound concentration 1000.0 nM
[27] = target: Epithelial discoidin domain-containing receptor 1 (Homo sapiens) (UniProt Q08345); conditions: Compound concentration 1000.0 nM
[28] = target: Tyrosine-protein kinase BTK (Homo sapiens) (UniProt Q06187); conditions: Compound concentration 1000.0 nM
[29] = test system: Phosphatidylinositol 4,5-bisphosphate 3-kinase catalytic subunit alpha isoform (Homo sapiens), P42336 [M1043I]; conditions: Compound concentration 1000.0 nM
Chain of Phosphatidylinositol 4,5-bisphosphate 3-kinase catalytic subunit alpha isoform (Homo sapiens), P42336 [M1043I] (P42336 whole entry M1043I, canonical isoform): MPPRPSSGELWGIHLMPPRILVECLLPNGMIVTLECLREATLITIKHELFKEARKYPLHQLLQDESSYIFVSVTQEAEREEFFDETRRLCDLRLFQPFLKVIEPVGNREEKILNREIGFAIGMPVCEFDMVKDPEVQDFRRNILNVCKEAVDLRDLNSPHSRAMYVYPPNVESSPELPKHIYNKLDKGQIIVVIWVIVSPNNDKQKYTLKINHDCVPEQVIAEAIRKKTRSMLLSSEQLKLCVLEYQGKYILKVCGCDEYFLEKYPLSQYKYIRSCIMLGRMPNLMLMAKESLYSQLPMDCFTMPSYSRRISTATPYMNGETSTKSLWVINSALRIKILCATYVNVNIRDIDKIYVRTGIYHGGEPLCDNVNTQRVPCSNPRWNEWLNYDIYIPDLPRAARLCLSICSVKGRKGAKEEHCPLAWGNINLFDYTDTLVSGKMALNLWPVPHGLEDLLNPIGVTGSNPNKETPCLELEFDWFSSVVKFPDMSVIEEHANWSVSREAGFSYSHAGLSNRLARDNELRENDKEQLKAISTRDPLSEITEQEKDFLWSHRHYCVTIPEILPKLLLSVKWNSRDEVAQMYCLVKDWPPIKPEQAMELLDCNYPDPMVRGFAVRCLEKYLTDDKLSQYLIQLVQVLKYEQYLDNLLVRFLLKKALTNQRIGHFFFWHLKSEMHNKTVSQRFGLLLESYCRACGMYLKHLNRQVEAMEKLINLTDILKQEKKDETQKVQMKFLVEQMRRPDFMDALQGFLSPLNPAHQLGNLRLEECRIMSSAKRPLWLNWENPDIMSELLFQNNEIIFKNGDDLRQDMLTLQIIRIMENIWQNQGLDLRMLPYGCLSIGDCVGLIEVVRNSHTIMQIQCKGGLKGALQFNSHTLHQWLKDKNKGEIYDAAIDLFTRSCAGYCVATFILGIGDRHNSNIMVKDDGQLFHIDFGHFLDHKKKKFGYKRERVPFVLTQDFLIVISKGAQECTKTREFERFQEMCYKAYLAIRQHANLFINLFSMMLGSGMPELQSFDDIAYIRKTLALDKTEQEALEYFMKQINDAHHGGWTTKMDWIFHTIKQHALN

[30] = target: Mitogen-activated protein kinase kinase kinase 5 (Homo sapiens) (UniProt Q99683); conditions: Compound concentration 1000.0 nM
[31] = target: Serine/threonine-protein kinase ULK3 (Homo sapiens) (UniProt Q6PHR2); conditions: Compound concentration 1000.0 nM
[32] = target: Mitogen-activated protein kinase 6 (Homo sapiens) (UniProt Q16659); conditions: Compound concentration 1000.0 nM
[33] = target: Mitotic checkpoint serine/threonine-protein kinase BUB1 (Homo sapiens) (UniProt O43683); conditions: Compound concentration 1000.0 nM
[34] = target: D(3) dopamine receptor (Homo sapiens) (UniProt P35462); conditions: Compound concentration 10.0 uM
[35] = target: Mitogen-activated protein kinase kinase kinase 15 (Homo sapiens) (UniProt Q6ZN16); conditions: Compound concentration 1000.0 nM
[36] = test system: Mast/stem cell growth factor receptor Kit (Homo sapiens), P10721 [D816H]; conditions: Compound concentration 1000.0 nM
[37] = target: Mitogen-activated protein kinase kinase kinase 6 (Homo sapiens) (UniProt O95382); conditions: Compound concentration 1000.0 nM
Chain of Mitogen-activated protein kinase kinase kinase 6 (Homo sapiens) (O95382 whole entry): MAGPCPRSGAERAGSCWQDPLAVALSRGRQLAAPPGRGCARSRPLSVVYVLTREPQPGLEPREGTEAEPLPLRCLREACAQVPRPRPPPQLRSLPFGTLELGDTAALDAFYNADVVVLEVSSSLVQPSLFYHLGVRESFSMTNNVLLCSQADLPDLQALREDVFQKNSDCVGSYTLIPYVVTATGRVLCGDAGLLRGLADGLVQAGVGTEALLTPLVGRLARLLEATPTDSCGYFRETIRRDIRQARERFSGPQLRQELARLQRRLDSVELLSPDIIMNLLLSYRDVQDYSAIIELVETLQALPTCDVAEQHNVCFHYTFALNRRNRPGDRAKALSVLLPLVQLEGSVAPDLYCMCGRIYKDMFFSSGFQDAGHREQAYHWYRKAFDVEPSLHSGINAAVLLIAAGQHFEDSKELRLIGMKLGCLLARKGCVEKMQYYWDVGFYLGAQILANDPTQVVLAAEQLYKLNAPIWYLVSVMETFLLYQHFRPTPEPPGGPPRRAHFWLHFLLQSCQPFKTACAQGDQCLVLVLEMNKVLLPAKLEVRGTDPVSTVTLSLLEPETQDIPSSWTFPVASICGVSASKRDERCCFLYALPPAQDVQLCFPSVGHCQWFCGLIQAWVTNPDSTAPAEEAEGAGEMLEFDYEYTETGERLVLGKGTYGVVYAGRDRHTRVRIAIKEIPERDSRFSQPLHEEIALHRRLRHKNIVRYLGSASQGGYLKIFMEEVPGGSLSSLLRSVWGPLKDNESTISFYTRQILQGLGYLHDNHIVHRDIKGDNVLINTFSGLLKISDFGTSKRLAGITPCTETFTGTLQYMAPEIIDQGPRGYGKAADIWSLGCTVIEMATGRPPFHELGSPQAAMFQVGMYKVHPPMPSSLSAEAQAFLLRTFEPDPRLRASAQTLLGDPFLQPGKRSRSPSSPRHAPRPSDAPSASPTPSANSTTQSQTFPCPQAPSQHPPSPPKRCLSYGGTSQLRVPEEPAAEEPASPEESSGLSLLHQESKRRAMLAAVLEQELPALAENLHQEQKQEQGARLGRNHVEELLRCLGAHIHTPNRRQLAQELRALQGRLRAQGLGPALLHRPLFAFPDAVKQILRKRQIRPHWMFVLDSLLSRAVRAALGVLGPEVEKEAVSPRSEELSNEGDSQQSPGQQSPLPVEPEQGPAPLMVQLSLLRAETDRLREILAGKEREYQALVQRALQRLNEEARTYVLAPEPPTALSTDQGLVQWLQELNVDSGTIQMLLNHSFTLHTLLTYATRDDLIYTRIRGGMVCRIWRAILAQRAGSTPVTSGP

[38] = target: Aurora kinase C (Homo sapiens) (UniProt Q9UQB9); conditions: Compound concentration 1000.0 nM
[39] = target: Serine/threonine-protein kinase PAK 1 (Homo sapiens) (UniProt Q13153); conditions: Compound concentration 1000.0 nM
[40] = target: Mitogen-activated protein kinase kinase kinase 11 (Homo sapiens) (UniProt Q16584); conditions: Compound concentration 1000.0 nM
[41] = target: Ephrin type-B receptor 2 (Homo sapiens) (UniProt P29323); conditions: Compound concentration 1000.0 nM
[42] = target: Rhodopsin kinase GRK1 (Homo sapiens) (UniProt Q15835); conditions: Compound concentration 1000.0 nM
Chain of Rhodopsin kinase GRK1 (Homo sapiens) (Q15835 whole entry): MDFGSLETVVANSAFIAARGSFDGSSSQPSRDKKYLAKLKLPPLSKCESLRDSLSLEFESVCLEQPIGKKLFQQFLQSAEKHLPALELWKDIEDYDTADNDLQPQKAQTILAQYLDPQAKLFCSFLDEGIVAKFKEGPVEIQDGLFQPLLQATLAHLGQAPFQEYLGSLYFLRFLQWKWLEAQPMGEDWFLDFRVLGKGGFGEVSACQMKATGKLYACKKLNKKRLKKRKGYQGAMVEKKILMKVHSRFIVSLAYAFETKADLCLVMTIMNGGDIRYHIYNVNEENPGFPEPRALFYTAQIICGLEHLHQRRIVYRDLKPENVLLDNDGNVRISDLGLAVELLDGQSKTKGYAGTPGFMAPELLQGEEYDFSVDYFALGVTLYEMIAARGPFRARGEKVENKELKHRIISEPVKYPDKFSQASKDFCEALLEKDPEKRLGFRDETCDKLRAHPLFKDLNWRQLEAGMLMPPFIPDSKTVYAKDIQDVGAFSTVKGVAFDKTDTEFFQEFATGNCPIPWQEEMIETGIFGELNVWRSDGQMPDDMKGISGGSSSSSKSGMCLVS

[43] = target: Mitogen-activated protein kinase 10 (Homo sapiens) (UniProt P53779); conditions: Compound concentration 1000.0 nM
[44] = target: Calcium/calmodulin-dependent protein kinase type 1D (Homo sapiens) (UniProt Q8IU85); conditions: Compound concentration 1000.0 nM
[45] = test system: Epidermal growth factor receptor (Homo sapiens), P00533 [UNDEFINED MUTATION]; conditions: Compound concentration 1000.0 nM

FC(F)(F)c1ccc2c(c1)nc(-c1cccnc1)n2C1CC1 [MSD-CYP11B2-Negative-control]
inactive: residual activity [1] 100% | residual activity [2] 100% | residual activity [3] 100% | residual activity [4] 100% | residual activity [5] 100% | residual activity [6] 96% | residual activity [7] 78% | residual activity [8] 100% | residual activity [9] 100% | residual activity [10] 100% | residual activity [11] 93% | residual activity [12] 94% | residual activity [13] 100% | residual activity [14] 100% | residual activity [15] 100% | inhibition [16] -1.22% | residual activity [17] 100% | residual activity [18] 100% | residual activity [19] 100% | residual activity [20] 100% | residual activity [21] 100% | residual activity [22] 93% | residual activity [23] 100% | residual activity [24] 100% | residual activity [25] 100% | residual activity [26] 100% | residual activity [27] 100% | residual activity [28] 93% | residual activity [29] 100% | residual activity [30] 96% | residual activity [31] 100% | residual activity [32] 100% | residual activity [33] 89% | inhibition [34] -1.96% | residual activity [35] 100% | residual activity [36] 100% | residual activity [37] 100% | residual activity [38] 100% | residual activity [39] 100% | residual activity [40] 100% | residual activity [41] 83% | residual activity [42] 100% | residual activity [43] 100% | residual activity [44] 100% | residual activity [45] 100%

CC(C)(O)c1cncc(-c2nc3ccc(F)cc3n2C2CC2)c1 [MSD-CYP11B2]
inactive: residual activity [1] 100% | residual activity [2] 100% | residual activity [3] 98% | residual activity [4] 100% | residual activity [5] 97% | residual activity [6] 100% | residual activity [7] 90% | residual activity [8] 100% | residual activity [9] 100% | residual activity [10] 100% | residual activity [11] 99% | residual activity [12] 100% | residual activity [13] 100% | residual activity [14] 100% | residual activity [15] 100% | inhibition [16] 1.04% | residual activity [17] 97% | residual activity [18] 100% | residual activity [19] 100% | residual activity [20] 100% | residual activity [21] 100% | residual activity [22] 88% | residual activity [23] 100% | residual activity [24] 100% | residual activity [25] 100% | residual activity [26] 100% | residual activity [27] 100% | residual activity [28] 83% | residual activity [29] 100% | residual activity [30] 100% | residual activity [31] 95% | residual activity [32] 100% | residual activity [33] 99% | inhibition [34] -6.18% | residual activity [35] 100% | residual activity [36] 100% | residual activity [37] 100% | residual activity [38] 100% | residual activity [39] 100% | residual activity [40] 100% | residual activity [41] 99% | residual activity [42] 100% | residual activity [43] 100% | residual activity [44] 100% | residual activity [45] 100%
